These results are taken from US20040087561A1, “Treatment of sexual dysfunction” (priority 2000, published 2004).

Experiment [1] relates to ovariectomised female Sprague Dawley rats. As to the kind of experiment: Inhibition of female rat sexual proceptivity by NMB and its antagonism. It is filed as in vivo. As for the experimental part: Ovariectomised female rats (Sprague Dawley, obtained from Charles River, UK) were stereotaxically implanted (coordinates 0.89 mm behind Bregma, 1.3 mm lateral and 2.5 mm vertical) with stainless steel cannulae (6 mm long, O.D. 0.75 mm), held in place with dental cement. Animals were housed in groups of three and returned to a reversed lighting system of 12 h light:dark (lights off 5.00-17.00 h). Correct placement of the cannulae was assessed post-mortem. Rats were used for tests two weeks after ovariectomy (one week after cannulation). The experiments started at least 5 h into the dark period. Forty eight hours before tests, the animals were primed with 5 μg oestradiol benzoate (OB) (s.c, in corn oil) and adapted to the apparatus (in the absence of stimuli animals) for 10 min on 2 consecutive days prior testing. The 10 min test was carried out as previously described. The difference in the percentage of time spent investigating male minus female was calculated, out of the total time spent investigating stimuli.
Progesterone (Prog, 0.5 mg/0.1 ml) was dissolved in corn oil and administered subcutaneously (s.c.), 4 h before test, to induce proceptive behaviour. Compound (1) (15 mg/kg, i.p.) was dissolved in 50% 2-hydroxypropyl-β-cyclodextrin in saline and administered 1 h before the i.c.v. administration. Neuromedin B was obtained from Bachem, UK. It was dissolved in isotonic saline and administered i.c.v. over a 30 sec period, with the aid of a pump set to deliver a flow of 10 μl/min, 10 min before tests. The dosing volume was 5 μl/rat. Each rat received a total amount of 100 ng.
From the present study we can conclude that stimulation of BB1 receptors with an agonist results in inhibition of proceptive behaviour. This inhibitory effect may be prevented by the presence of an antagonist. e.g. Compound (1) In FIG. 5 the bars represent percentage of time spent investigating male, minus the percentage of time spent investigating the female stimuli+SEM, (n=8-12 per group). ***P<0.001 vs progesterone (One-way ANOVA followed by Dunnett's test).

Experiment [2] has as its system Sprague Dawley male rats. As to the kind of experiment: Sexual behaviour of normal (sexually vigorous) male rats. As to conditions: Compound (1) 15 mg/kg or fluoxetine 20 mg/kg i.p., 1 h before test, vs vehicle. It is filed as in vivo, rat. As for the experimental part:
The potentially stimulatory effect of Compound (1) on male sexual behaviour has been tested on sexually vigorous rats. Sprague Dawley male rats (Charles River, UK) were kept, 4 rats per cage, in a reversed lighting regime (12:12 hours, lights off at 5.00 h), with free access to food and water. The rats were pre-selected by being presented with a receptive female at 4 days intervals, i.e. every third day (having 2 clear days between presentations) until completing 6-7 days of baseline determination. The animals showing consistently vigorous behaviour (ejaculatory latencies <300 s) were chosen for further experiments (n=24). Animals were randomised into three groups. All animals received all three treatments following a latin-square design. Treatments were administered once a week, with a baseline test in between treatments (4 days intervals between baseline and test day). Treatments were Compound (1) (15 mg/kg, dissolved in 50% 2-hydroxypropyl-β-cyclodextrin in saline), vehicle, or Fluoxetine (20 mg/kg dissolved in 100% DMSO). All treatments were administered i.p. in a 1 ml/kg volume, 1 h before tests.
For all the sexual behaviour tests, the males were placed in an observation arena (50-60 cm diameter), starting 5 hours into the dark cycle and observed under red illumination. Three to 4 minutes after placing the male in the arena, a receptive female (ovariectomised, bearing a 7 mm Silastic implant of oestradiol benzoate) was introduced to the arena and the following parameters noted: Mount Latency: time (in seconds) taken between introduction of female and first mount. A maximum time of 15 minutes (900 seconds) was allowed, and the test terminated if no mounts were recorded within that time (FIG. 11), Intromission Latency: time (in seconds) taken between introduction of female and first intromission (FIG. 12), Number of Mounts: to reach ejaculation. When ejaculation was not reached, the number of mounts was not analyzed, Number of Intromissions: to reach ejaculation. When ejaculation was not reached, the number of intromissions was not analyzed (FIG. 13 is number of mounts+intromissions), Ejaculation Latency: time (in seconds) taken from first intromission to ejaculation. A maximum time of 30 minutes (1800 seconds) was given, and the test terminated if ejaculation was not achieved in that time (FIG. 14), and Refractory Period: time (in seconds) taken from ejaculation to the first mount of the next series of sexual activity. In those animals reaching ejaculation the test was terminated at the end of the refractory period, as indicated by the first mount of the next sexual cycle (FIG. 15).
A one-way ANOVA followed by Dunnett's t test was used to compare treated vs vehicle groups each day of testing, for all the sexual behaviour parameters. (*P<0.05, **P<0.01; n=15-16).

In experiment [3] the test system is Sprague Dawley male rats. Kind of experiment: Sexual behaviour of sexually dysfunctional (fluoxetine-treated) male rats. It is filed as in vivo, rat. As to conditions: fluoxetine 20 mg/kg i.p. 3 days (vs vehicle+vehicle); day 4 Compound (1) 15 mg/kg or yohimbine 2 mg/kg i.p. 1 h before test (vs fluoxetine+vehicle). As for the experimental part: Sprague Dawley male rats (Charles River, UK) were kept, 4 rats per cage, in a reversed lighting regime (12:12 hours, lights off at 5.00 h), with free access to food and water. The rats were pre-selected by being presented with a receptive female at […], i.e. every third day (haying 2 clear days between presentations) until completing 6-7 trials of baseline determination. The animals showing consistently vigorous behaviour (ejaculatory latencies <300 s) were chosen for further experiments. Animals were treated for 3 consecutive days with either vehicle (water) or fluoxetine (20 mg/kg, i.p., in a 2 ml/kg dosing volume). On the fourth day, the animals treated with water received vehicle (veh+veh) and the animals treated with fluoxetine received one of the three following treatments: Compound (1) (15 mg/kg, dissolved in 50% 2-hydroxypropyl-β-cyclodextrin in saline), vehicle (cyclodextrine), or yohimbine (2 mg/kg dissolved in water). All treatments were administered i.p. in a 1 ml/kg volume, 1 h before tests.
For all the sexual behaviour tests, the males were placed in an observation arena (50-60 cm diameter), starting 5 hours into the dark cycle and observed under red illumination. Three to 4 minutes after placing the male in the arena, a receptive female (ovariectomised, bearing a 7 mm Silastic implant of oestradiol benzoate) was introduced to the arena and the following parameters noted: Mount Latency: time (in seconds) taken between introduction of female and first mount. A maximum time of 15 minutes (900 seconds) was allowed, and the test terminated if no mounts were recorded within that time (FIG. 16), Ejaculation Latency: time (in seconds) taken from first intromission to ejaculation. A maximum time of 30 minutes (1800 seconds) was given, and the test terminated if ejaculation was not achieved in that time (FIG. 17), Percentage of males achieving ejaculation within 30 minutes was calculated (FIG. 18).
A one-way ANOVA followed by Dunnett's t test was used to compare the fluoxetine+vehicle group and other groups for mount and ejaculatory latencies. Percentage of animals ejaculating was analysed using a Chi-square test followed by Fisher's test. (*: P<0.05, **: P<0.01, ***: P<0.001; n=15-19).

The test system of experiment [4] is ovariectomised female Sprague Dawley rats. Kind of experiment: Female rat sexual proceptivity (time investigating male vs female stimulus). The conditions noted are these: day 1; Compound (1) 15 mg/kg i.p. 1 h before; progesterone 0.5 mg/0.1 ml s.c. 4 h before; vs vehicle, P<0.01. It is filed as in vivo. Here is the method: Ovariectomised adult female Sprague Dawley rats (180-200 g, from Charles River) were housed in groups of 6 in a reversed lighting system of 12 h light:dark (lights off 7.00-19.00 h). Two weeks after ovariectomy they were used for sexual activity tests. The experiments started at least 5 h into the dark period.
Tests were carried out in a circular arena of 90 cm diameter, surrounded by a 30 cm high wall. Two small cages with wire-mesh front (15×15 cm) are fixed into the wall such that the front of the cage is <> with the wall and the 2 cages are opposite each other. They contained two stimuli animals: an intact sexually experienced male and a receptive female (ovariectomised, primed with 5 μg oestradiol benzoate dissolved in corn oil and injected subcutaneously 48 hours before the test and with 0.5 mg of progesterone four hours before the test). Sexually naive test and control animals were used. Forty eight hours before the tests, both the test and control animals were primed with 5 μg oestradiol benzoate. For animals used as positive controls, progesterone (0.5 mg/0.1 ml) was dissolved in corn oil and administered subcutaneously (s.c.), 4 h before the test. Test and control animals were introduced one at a time for 10 minute periods into the arena. During the 10 min test, the time that the test or positive control animal spent investigating each stimulus animal was noted. The arena was thoroughly cleaned between animals. The position of the male/female stimuli boxes was randomised between animals, in order to avoid place preference. The difference in the percentage of time spent investigating the male minus the female stimuli was calculated, out of the total time spent investigating stimuli animals.
Compound (1) was dissolved in 100% β-cyclodextrin and then diluted with saline to a final solution of 50% 2-hydroxypropyl-β-cyclodextrin. It was administered intraperitoneally (i.p.) at doses of 3 and 10 mg/kg, in a dosing volume of 1 ml/kg, 1 h before tests. Progesterone (0.5 mg/0.1 ml) was dissolved in corn oil and administered subcutaneously (s.c.), 4 h before test, as a positive control.
Ovariectomised adult female Sprague Dawley rats (180-200 g) were housed in groups of 5 in a reversed lighting system of 12 h light:dark (lights off 5.00-17.00 h). They were used for the experiments at least two weeks after ovariectomy. Forty eight hours before tests, the animals were primed with oestradiol benzoate (5 μg/0.1 ml in corn oil, s.c.). On day 1, progesterone (0.5 mg/0.1 ml, in corn oil, s.c.) was administered to one of the groups 4 h before tests, as a positive control. Compound (1) (15 mg/kg, i.p.) was administered in 50% 2-hydroxypropyl-β-cyclodextrin, 1 h before tests. The test lasted 10 minutes and was carried out as described before. The difference in the percentage of time spent investigating the male minus the female stimuli was calculated, out of the total time spent investigating stimuli animals. Animals were submitted to a test on day 1 and on day 15. From day 2 to 14 the Compound (1) group received a daily injection of the compound (15 mg/kg, i.p.), while both the vehicle and the progesterone groups received an injection of vehicle. On day 15 the test took place again, as described for day 1.
Ovariectomised female rats (Sprague Dawley, obtained from Charles River, UK) were stereotaxically implanted (coordinates 0.89 mm behind Bregma, 1.3 mm lateral and 2.5 mm vertical) with stainless steel cannulae (6 mm long, O.D. 0.75 mm), held in place with dental cement. Animals were housed in groups of three and returned to a reversed lighting system of 12 h light:dark (lights off 5.00-17.00 h). Correct placement of the cannulae was assessed post-mortem. Rats were used for tests two weeks after ovariectomy (one week after cannulation). The experiments started at least 5 h into the dark period. […]

For experiment [5] the test system is unchanged. Kind of experiment: Plasma sexual hormone levels (radioimmunoassay) in ovariectomised female rats. It is filed as in vivo, rat. As to conditions: Compound (1) 3-10 mg/kg 1 h, progesterone 0.5 mg/0.1 ml s.c. 4 h before blood collection; vs vehicle. As for the experimental part:
Ovariectomised adult female Sprague Dawley rats (180-200 g) were housed in groups of 6 in a reversed lighting system of 12 h light:dark (lights off 7.00-19.00 h). They were used for the experiments at least two weeks after ovariectomy. Forty eight hours before tests, the animals were primed with oestradiol benzoate (5 μg/0.1 ml in corn oil, s.c.). Progesterone (0.5 mg/0.1 ml, in corn oil, s.c.) was administered 4 h before blood collection, as a positive control. Compound (1) (3-10 mg/kg, i.p.) was administered in 50% 2-hydroxypropyl-β-cyclodextrin, 1 h prior to blood collection. Blood was collected from the trunk, after decapitation. It was immediately centrifuged (3500 r.p.m., 4° C., 5 min) and the plasmas frozen until assayed for hormonal content, using commercially available radioimmunoassay kits (^125I-labelled hormones) for oestradiol, progesterone, LH, FSH and prolactin.

For the compound neuromedin B [NMB], in experiment [1] (NMB 100 ng i.c.v. 10 min before test), the “proceptivity in progesterone-treated rats” value is given as “significantly reduced proceptivity”.

Turning to `CNCCC(Oc1ccc(C(F)(F)F)cc1)c1ccccc1` (stereo not shown) [fluoxetine], in the experiment with Sprague Dawley male rats [2], the Ejaculation latency entry was “also increased”, the Intromission latency entry is on record as “significantly increased”, the Mount latency entry was “significantly increased” and the Refractory period entry is listed as “also increased”. Moreover, in the experiment on Sprague Dawley male rats [2], the “number of mounts and intromissions required to achieve ejaculation” value is “No changes”. For the same compound, in the experiment with Sprague Dawley male rats [3], the Ejaculation latency result was “significantly increased”, the Mount latency entry is recorded as “significantly increased” and the “percentage of animals ejaculating (within 30 minutes)” value is reported as “significantly lower”.

Consider `CC(=O)[C@H]1CC[C@H]2[C@@H]3CCC4=CC(=O)CC[C@]4(C)[C@H]3CC[C@]12C` [progesterone, reference compound], for which the “effect on proceptivity, day 1” value in experiment [4] was “stimulatory effect on proceptivity”. In addition, the “percentage of time spent investigating the male stimulus” value in experiment [1] (progesterone 0.5 mg/0.1 ml s.c. 4 h before test, vs vehicle group) was “increased the percentage of time spent investigating the male stimulus”. Moreover, in experiment [5], the LH plasma levels result is given as “significant decrease” and the progesterone plasma levels entry is recorded as “significant increase”.
